The source made the active and inactive calls. The calls are words filed in the database; no cut-off is given here.
How the values were obtained:
[1] = target: T1, Acid-sensing ion channel 1 (Rattus norvegicus, UniProt P55926); assay: Inhibition of rat ASIC1a receptor expressed in xenopus lavies oocytes assessed as inhibition of pH 6.7-gated currents by two electrode voltage clamp; type: cell-based
T1 sequence (P55926 whole entry): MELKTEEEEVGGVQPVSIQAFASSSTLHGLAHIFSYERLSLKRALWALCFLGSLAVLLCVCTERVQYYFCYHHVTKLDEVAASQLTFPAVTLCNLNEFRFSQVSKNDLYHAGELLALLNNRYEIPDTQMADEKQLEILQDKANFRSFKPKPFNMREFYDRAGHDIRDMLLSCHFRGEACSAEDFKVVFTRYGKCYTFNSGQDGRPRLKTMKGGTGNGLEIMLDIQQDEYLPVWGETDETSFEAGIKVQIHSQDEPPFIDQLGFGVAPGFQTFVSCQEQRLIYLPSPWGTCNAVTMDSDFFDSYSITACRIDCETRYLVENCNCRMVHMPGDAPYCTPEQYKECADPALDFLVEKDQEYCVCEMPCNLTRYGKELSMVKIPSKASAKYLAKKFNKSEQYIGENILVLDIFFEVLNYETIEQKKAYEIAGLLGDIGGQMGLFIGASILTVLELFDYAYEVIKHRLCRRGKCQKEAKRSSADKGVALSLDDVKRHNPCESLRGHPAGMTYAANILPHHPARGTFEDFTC

[2] = target: T2, Acid-sensing ion channel 3 (Rattus norvegicus, UniProt O35240); assay: Inhibition of rat ASIC3 receptor expressed in xenopus lavies oocytes assessed as inhibition of pH 6.4-gated currents by two electrode voltage clamp; type: cell-based
T2 sequence (O35240 whole entry): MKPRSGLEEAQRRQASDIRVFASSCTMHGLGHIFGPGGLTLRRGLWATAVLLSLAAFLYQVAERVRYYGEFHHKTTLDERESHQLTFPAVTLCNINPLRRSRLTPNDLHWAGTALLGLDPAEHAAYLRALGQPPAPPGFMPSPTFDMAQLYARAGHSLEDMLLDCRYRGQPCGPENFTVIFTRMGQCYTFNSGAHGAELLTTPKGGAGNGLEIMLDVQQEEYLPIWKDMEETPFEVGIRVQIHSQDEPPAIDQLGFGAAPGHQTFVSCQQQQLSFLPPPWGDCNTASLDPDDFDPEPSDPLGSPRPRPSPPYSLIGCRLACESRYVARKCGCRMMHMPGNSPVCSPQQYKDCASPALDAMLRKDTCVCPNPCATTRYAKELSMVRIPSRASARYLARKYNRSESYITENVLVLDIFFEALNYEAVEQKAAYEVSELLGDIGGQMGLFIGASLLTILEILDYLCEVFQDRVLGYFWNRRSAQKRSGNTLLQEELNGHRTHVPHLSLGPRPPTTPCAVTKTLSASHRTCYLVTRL

[3] = target: T3, Acid-sensing ion channel 1 (Rattus norvegicus) (UniProt P55926); assay: Inhibition of rat ASIC1a receptor expressed in xenopus lavies oocytes at 0.03 to 3 mM at greater than pH 5 by two electrode voltage clamp; type: cell-based
T3 sequence (whole entry): T1 sequence (P55926 whole entry)

[4] = target: T3, Acid-sensing ion channel 1 (Rattus norvegicus); assay: Inhibition of rat ASIC1a receptor expressed in xenopus lavies oocytes at 0.1 to 3 mM at greater than pH 5 by two electrode voltage clamp; type: cell-based
cells = conditions: Rattus norvegicus
[5] = Solubility of the compound in buffer at less than pH 5; type: physicochemical
[6] = Solubility of the compound in buffer at pH 4; type: physicochemical
[7] = target: T3, Acid-sensing ion channel 1 (Rattus norvegicus)

SMILES | IC50 [1] [µM] | IC50 [2] [µM] | other results
Cc1ccc(C(C)C(=O)O)cc1 (centres undefined) | > 10000 | 708 | –
CC(C)Cc1ccc(C(F)C(=O)O)cc1 (centres undefined) | 955 | 891 | –
CC(C)Cc1ccc(C(=O)O)cc1 | 417 | 302 | inhibition [3]: Active
CC(C)Cc1ccc(C(C)[N+](=O)[O-])cc1 (centres undefined) | – | – | inhibition [4]: inactive
CC(C(=O)O)c1ccc(-c2ccccc2)c(F)c1 (racemic) [FLURBIPROFEN] | 170 | 229 | –
CC(C)Cc1ccc(C(C)C(=O)O)cc1 (racemic) [IBUPROFEN] | – | – | IC50 (cells): 3000 µM; IC50 (cells; read-out: pIC50 (converted)): 3160 µM; solubility [5]: Insoluble; solubility [6]: Insoluble; pH50 [7]: 6.6
CCC(C(=O)O)c1ccc(CC(C)C)cc1 (centres undefined) [BUTIBUFEN] | 182 | 288 | –
CC(C)Cc1ccc(CC(=O)O)cc1 [IBUFENAC] | 1020 | 417 | –

Source: ChEMBL document CHEMBL4028862 (J Med Chem, 2017)
